Data: publication doi:10.1101/2023.02.03.527073v1 (biorxiv, 2023)

Tests used:
CgBdf1 BD2 (CgBD2) [1] = target: T1, CgBdf1 BD2 (CgBD2) (Nakaseomyces glabratus, UniProt Q6FWV7); assay: HTRF competition with biotinylated H4ac4 peptide; format: binding
T1 sequence (Q6FWV7 269-391): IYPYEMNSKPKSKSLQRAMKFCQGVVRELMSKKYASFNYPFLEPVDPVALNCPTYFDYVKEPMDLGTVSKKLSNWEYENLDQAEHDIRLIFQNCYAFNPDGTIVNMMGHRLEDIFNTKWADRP

CgBdf1 BD1 (CgBD1) [2] = target: T2, CgBdf1 BD1 (CgBD1) (Nakaseomyces glabratus, UniProt Q6FWV7); assay: HTRF competition with biotinylated H4ac4 peptide; format: binding
T2 sequence (Q6FWV7 100-228): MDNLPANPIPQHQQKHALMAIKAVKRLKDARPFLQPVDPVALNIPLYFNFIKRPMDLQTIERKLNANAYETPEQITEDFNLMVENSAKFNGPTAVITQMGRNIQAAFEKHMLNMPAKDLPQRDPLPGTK

[3] = target: T3, human Brd4 BD2 (hBrd4 BD2) (Homo sapiens, UniProt O60885); assay: HTRF competition with biotinylated H4ac4 peptide; format: binding
[4] = target: T4, human Brd4 BD1 (hBrd4 BD1) (Homo sapiens, UniProt O60885); assay: HTRF competition with biotinylated H4ac4 peptide; format: binding
[5] = target: T3, human Brd4 BD2 (hBrd4 BD2); assay: biochemical
[6] = target: T4, human Brd4 BD1 (hBrd4 BD1); assay: biochemical
CgBdf1 BD2 (CgBD2) [7] = target: T1, CgBdf1 BD2 (CgBD2); assay: biochemical
CgBdf1 BD1 (CgBD1) [8] = target: T2, CgBdf1 BD1 (CgBD1); assay: biochemical

SMILES | IC50 (CgBdf1 BD2 (CgBD2) [1]) [nM] | IC50 (CgBdf1 BD1 (CgBD1) [2]) [nM] | IC50 [3] [nM] | IC50 [4] [nM] | IC50 [5] [nM] | IC50 [6] [nM] | IC50 (CgBdf1 BD2 (CgBD2) [7]) [nM] | IC50 (CgBdf1 BD1 (CgBD1) [8]) [nM]
Cc1ccc(-c2nnc(C)c(NCc3cccs3)n2)cc1 [compound 24, 24] | > 20000 | 2230 ± 260 | > 20000 | > 20000 |  |  |  | 
CC(=O)N1CCc2[nH]c3ccc(C(=O)Nc4ccc(N5CCOCC5)cc4)cc3c2C1 [compound 29, 29] | 2060 ± 230 | 1810 ± 1140 |  |  | 440 | 2900 | 2300 | 1100
Cn1nccc1C(=O)NCc1ccc(-c2nc(-c3cccs3)no2)s1 [compound 63, 63] |  | 610 ± 100 |  | 25900 ± 7900 |  | > 20000 |  | 
